Experimental data reported in US12427171B2, “Krill oil composition enriched in LPC-DHA and LPC-EPA” (Aker BioMarine Human Ingredients AS, priority 2020, dated 2025).

Legend:
[1] = Rat retinal fatty acid composition after daily gavage of DHA as TAG, PC or LPC for 30 days (GC/MS); format: in vivo
Method: Normal male Sprague-Dawley rats (8-week-old; n=5 per group) were gavaged daily with 10 mg DHA in 250 μL corn oil in the form of TAG-DHA, di-DHA PC, or LPC-DHA for 30 days. […] All animals were on regular rodent chow that contained no DHA, but contained 17.4 mg α-linolenic acid (18:3, n-3) per g of chow. Retinal FA were analyzed by GC/MS as described in the text. The percent composition of 20:4 (n-6), 20:5 (n-3), 22:5 (n-3), and 22:6 (n-3) are shown here. The significance of differences between the treatment groups was determined by a one-way ANOVA, with Tukey multiple post-hoc test (Graphpad Prism 8.0). […] TG: triacylglycerol; PC: phosphatidylcholine; LPC: lysophosphatidylcholine; FA: fatty acid; GC/MS: gas chromatography/mass spectroscopy.
(§1) Animals and dietary treatments: All studies in animals described here were approved by the Institutional Animal Care and Use Committee of the University of Illinois at Chicago. The retina samples were obtained from our previous studies on the brain accretion of DHA in mice and rats, which were published previously. Male Sprague-Dawley rats (8-week-old) were purchased from Harlan laboratories (Indianapolis, IN, USA). Male C57 BL/J6 mice (2-4-months-old) were purchased from Jackson Laboratories (Bar Harbor. Maine).
(§2) In the first study, male Sprague-Dawley rats (n=5 per group, 8-week-old) were gavaged daily with 10 mg of DHA (40 mg DHA/kg body weight) in the form of TAG-DHA (DHASCO algal oil, DSM Nutritional Products, Columbia, MD, USA), synthetic di-DHA PC (phosphatidylcholine), or synthetic LPC-DHA (sn-1 acyl) for 30 days. The DHA was distributed equally among the three positions of TAG-DHA [17]. […] In the second study, 4-month-old male C57 BL/J6 mice (n=8 per group) were gavaged daily with 40 mg DHA/kg body weight in the form of free (unesterified) DHA, sn-1 acyl LPC-DHA, or sn-2 acyl LPC-DHA for 30 days as described previously. In the third study, male C57 BL/J6 mice (2-months-old, n=5 per group) were fed diets enriched with natural or lipase-treated fish oil or hill oil for 30 days. The total amount of omega-3 FA (eicosapentaenoic acid (EPA)+DHA) was 2.64 g/kg diet in all the diets. The untreated hill oil contained 18% of total omega-3 FA as LPC, whereas the lipase-treated hill oil contained >80% of the total omega-3 FA as LPC. The fish oil diets contained no LPC-EPA or LPC-DHA. The animals were trans-cardially perfused with ice cold phosphate buffered saline under anesthesia and the retinas were collected and kept frozen at −80° C. until the analysis.
(§3) Analytical procedures: The total lipids of retina were extracted by Bligh and Dyer procedure and the fatty acids were methylated using methanolic HCl. The fatty acid analysis was carried out by GC/MS (gas chromatography/mass spectroscopy) using Shimadzu QP2010SE equipped with Supelco Omegawax column, as described previously. Total ion current in the range of 50-400 m/z was used for quantification of the methyl esters. For LC/MS/MS (liquid chromatography/tandem mass spectroscopy) analysis, the lipids were extracted by the procedure of Ivanova et al.. The analysis of molecular species of phospholipids was performed on an ABSciex QTRAP mass spectrometer (Redwood City, CA, USA) coupled with Agilent 2600 UPLC system (Santa Clara, CA, USA), by multiple reaction monitoring. The internal standards 17:0 LPC, di 17:0 PC, and di 17:0 PE (phosphatidylethanolamine) were used for the quantification of the corresponding molecular species, without applying any correction factors for the differences in the ion intensity of different molecular species.
Statistics and correlations: The significance of differences between treatment groups was determined by a one-way ANOVA, with Tukey post-hoc multiple comparison corrections or unpaired t-test between control and treated samples adjusted with Holm-Sidak method (Graphpad Prism 8.0, San Diego, CA, USA). […]

[2] = Mouse retinal fatty acid composition after daily gavage of free DHA, sn-1 DHA LPC or sn-2 DHA LPC for 30 days (GC/MS); format: in vivo; conditions: 1 mg DHA daily by gavage
Method: Normal male mice (C57 BL/J6, 16-week-old) were gavaged daily with 1 mg DHA in the form of free DHA, sn-1 DHA LPC, or sn-2 DHA LPC in 80 μL corn oil for 30 days. Retinal FA composition was analyzed by GC/MS. Only the values for arachidonic acid and the omega-3 FA are shown here (mean±SD, 8 animals/group). […] SD: standard deviation; sn-1 and sn-2: stereospecific numbering 1 and 2 respectively; LPC: lysophosphatidylcholine; DHA: docosahexaenoic acid.
as §1, §2, §3
Statistics and correlations: The significance of differences between treatment groups was determined by a one-way ANOVA, with Tukey post-hoc multiple comparison corrections or unpaired t-test between control and treated samples adjusted with Holm-Sidak method (Graphpad Prism 8.0, San Diego, CA, USA).

CC/C=C\C/C=C\C/C=C\C/C=C\C/C=C\C/C=C\CCC(=O)OC[C@H](COP(=O)([O-])OCC[N+](C)(C)C)OC(=O)CC/C=C\C/C=C\C/C=C\C/C=C\C/C=C\C/C=C\CC [PC-DHA]
rat retinal fatty acid composition, 12:0, Mean ([1]; 10 mg DHA daily by gavage): 4.57 % of total FA
rat retinal fatty acid composition, 14:0, Mean ([1]; 10 mg DHA daily by gavage): 0.97 % of total FA
rat retinal fatty acid composition, 16:0, Mean ([1]; 10 mg DHA daily by gavage): 19.06 % of total FA
rat retinal fatty acid composition, 16:0 DMA, Mean ([1]; 10 mg DHA daily by gavage): 0.05 % of total FA
rat retinal fatty acid composition, 16:1 (n-7), Mean ([1]; 10 mg DHA daily by gavage): 0.65 % of total FA
rat retinal fatty acid composition, 17:1 (n-7), Mean ([1]; 10 mg DHA daily by gavage): 0.03 % of total FA
rat retinal fatty acid composition, 18:0, Mean ([1]; 10 mg DHA daily by gavage): 17.79 % of total FA
rat retinal fatty acid composition, 18:0 DMA, Mean ([1]; 10 mg DHA daily by gavage): 0.03 % of total FA
rat retinal fatty acid composition, 18:1 (n-7), Mean ([1]; 10 mg DHA daily by gavage): 3.91 % of total FA
rat retinal fatty acid composition, 18:1 (n-9), Mean ([1]; 10 mg DHA daily by gavage): 17.70 % of total FA
rat retinal fatty acid composition, 18:1 DMA, Mean ([1]; 10 mg DHA daily by gavage): 0.06 % of total FA
rat retinal fatty acid composition, 18:2 (n-6), Mean ([1]; 10 mg DHA daily by gavage): 0.95 % of total FA
rat retinal fatty acid composition, 18:3 (n-3), Mean ([1]; 10 mg DHA daily by gavage): 0.07 % of total FA
rat retinal fatty acid composition, 18:3 (n-6), Mean ([1]; 10 mg DHA daily by gavage): 0.49 % of total FA
rat retinal fatty acid composition, 20:0, Mean ([1]; 10 mg DHA daily by gavage): 0.05 % of total FA
rat retinal fatty acid composition, 20:1 (n-9), Mean ([1]; 10 mg DHA daily by gavage): 0.07 % of total FA
rat retinal fatty acid composition, 20:2 (n-6), Mean ([1]; 10 mg DHA daily by gavage): 0.06 % of total FA
rat retinal fatty acid composition, 20:3 (n-6), Mean ([1]; 10 mg DHA daily by gavage): 0.06 % of total FA
rat retinal fatty acid composition, 20:4 (n-6), Mean ([1]; 10 mg DHA daily by gavage): 8.45 % of total FA
rat retinal fatty acid composition, 20:5 (n-3), Mean ([1]; 10 mg DHA daily by gavage): 0.06 % of total FA
rat retinal fatty acid composition, 22:0, Mean ([1]; 10 mg DHA daily by gavage): 0.07 % of total FA
rat retinal fatty acid composition, 22:2 (n-6), Mean ([1]; 10 mg DHA daily by gavage): 0.12 % of total FA
rat retinal fatty acid composition, 22:4 (n-6), Mean ([1]; 10 mg DHA daily by gavage): 0.07 % of total FA
rat retinal fatty acid composition, 22:5 (n-3), Mean ([1]; 10 mg DHA daily by gavage): 0.06 % of total FA
rat retinal fatty acid composition, 22:5 (n-6), Mean ([1]; 10 mg DHA daily by gavage): 0.02 % of total FA
rat retinal fatty acid composition, 22:6 (n-3), Mean ([1]; 10 mg DHA daily by gavage): 24.53 % of total FA
rat retinal fatty acid composition, 24:1 (n-9), Mean ([1]; 10 mg DHA daily by gavage): 0.05 % of total FA
change of the percentage of DHA in retina versus control ([1]; rats, 10 mg DHA/day (40 mg DHA/kg)): +45%

CC/C=C\C/C=C\C/C=C\C/C=C\C/C=C\C/C=C\CCC(=O)O[C@H](CO)COP(=O)([O-])OCC[N+](C)(C)C [sn-2 DHA LPC]
fatty acid composition of mouse retina, 12:0, Mean ± S.D. [2]: 0.73 ± 0.47
fatty acid composition of mouse retina, 14:0, Mean ± S.D. [2]: 0.30 ± 0.17
fatty acid composition of mouse retina, 16:0, Mean ± S.D. [2]: 14.62 ± 1.22
fatty acid composition of mouse retina, 16:0 DMA, Mean ± S.D. [2]: 1.02 ± 0.32
fatty acid composition of mouse retina, 16:1 (n-7), Mean ± S.D. [2]: 0.47 ± 0.34
fatty acid composition of mouse retina, 17:1 (n-7), Mean ± S.D. [2]: 0.48 ± 0.38
fatty acid composition of mouse retina, 18:0, Mean ± S.D. [2]: 15.44 ± 1.50
fatty acid composition of mouse retina, 18:0 DMA, Mean ± S.D. [2]: 1.96 ± 0.30
fatty acid composition of mouse retina, 18:1(n-7), Mean ± S.D. [2]: 3.82 ± 0.62
fatty acid composition of mouse retina, 18:1 (n-9), Mean ± S.D. [2]: 15.56 ± 1.16
fatty acid composition of mouse retina, 18:1 DMA, Mean ± S.D. [2]: 0.78 ± 0.64
fatty acid composition of mouse retina, 18:2 (n-6), Mean ± S.D. [2]: 1.38 ± 0.49
fatty acid composition of mouse retina, 18:3 (n-3), Mean ± S.D. [2]: 0.51 ± 0.42
fatty acid composition of mouse retina, 18:3 (n-6), Mean ± S.D. [2]: 0.60 ± 0.47
fatty acid composition of mouse retina, 20:0, Mean ± S.D. [2]: 1.18 ± 0.72
fatty acid composition of mouse retina, 20:1 (n-9), Mean ± S.D. [2]: 2.87 ± 0.60
fatty acid composition of mouse retina, 20:2 (n-6), Mean ± S.D. [2]: 0.88 ± 0.95
fatty acid composition of mouse retina, 20:3 (n-6), Mean ± S.D. [2]: 1.44 ± 0.35
fatty acid composition of mouse retina, 20:4 (n-6), Mean ± S.D. [2]: 5.75 ± 0.71
fatty acid composition of mouse retina, 20:5 (n-3), Mean ± S.D. [2]: 1.91 ± 1.40
fatty acid composition of mouse retina, 22:0, Mean ± S.D. [2]: 1.24 ± 0.95
fatty acid composition of mouse retina, 22:2 (n-6), Mean ± S.D. [2]: 1.00 ± 0.76
fatty acid composition of mouse retina, 22:4 (n-6), Mean ± S.D. [2]: 2.23 ± 0.87
fatty acid composition of mouse retina, 22:5 (n-3), Mean ± S.D. [2]: 0.79 ± 0.76
fatty acid composition of mouse retina, 22:6 (n-3), Mean ± S.D. [2]: 22.57 ± 3.12
fatty acid composition of mouse retina, 24:1 (n-9), Mean ± S.D. [2]: 0.49 ± 0.17
